Laboratory results as given in US8541468B2, “Ophthalmic composition for treating tear dysfunction” (Ophtecs Corporation, priority 2003, dated 2013).

Assays:
Type in all cases: in vivo
[1] = tested on: corneal epithelial cells of rat dry eye models; test: SEM observation of corneal epithelial cells of rat dry eye models (proportion of dark cells, microvilli); conditions: 80 mmol/l HBA.Na applied for 5 days, dry environment
Experimental: By use of the rat dry eye models described in Example 1, the corneal epithelial cells of the rats after HBA.Na and PBS were applied were observed by a scanning electron microscope (hereinafter abbreviated as “SEM”).
Samples were prepared in the following manner. • (1) In accordance with the methods described (1), (2) and (4) of Example 1, after 80 mmol/l of HBA.Na and a PBS solution were applied for 5 days, the corneas of the rats were removed immediately and washed with a phosphate buffer (hereinafter abbreviated as “PB”). […]
The photographs taken by the above method were subjected to image analysis to calculate the proportion of the number of dark cells. In the analysis, 6 spots of a certain area were selected randomly from the photograph, the numbers of cells and dark cells within the areas were counted, and the ratio of the number of dark cells to the number of all cells was calculated. […]

rat dry eye models [2] = test: Observation of dry spot areas in the tear film of rat dry eye models; conditions: four times a day for 5 days, dry environment
Description: Air was blown against rats in a low humidity environment as described below to prepare rat dry eye models. An effect of sodium D-3-hydroxybutyrate (hereinafter abbreviated as “HBA.Na”) which is an active ingredient in the present invention, i.e., its effect of improving the stability of tear film, was examined by use of the prepared rat dry eye models. That is, observation of dry spot areas in the tear film of the rats and measurement of BUT of the tear film were made. […]
After passage of two hours from the last application of the eye drops on the fifth day, a xylazine hydrochloride/ketamine hydrochloride mixed solution was injected (2 ml/kg) into the rats to anesthetize them. […] Dry spot areas had been observed for 5 minutes since the eye-opening by use of a dry eye observation device “DR-1” (product of KOWA CO., LTD.), and the observed images were recorded on a videotape. The observed images were analyzed by use of image analysis software “Scion Image (version 4.02β)” (product of Scion Corporation) to determine a dry spot area per unit area [dry spot area (pixel)/area of observed area on the cornea (pixel)]. From the area, a dry spot area per unit area of the cornea [dry spot area (mm^2)/area of observed area on the cornea (mm^2)] was calculated by use of a conversion formula (1 pixel=0.0000195 mm^2) and evaluated. […]

rat dry eye models [3] = test: Measurement of tear film breakup time (BUT) in rat dry eye models; conditions: eye drops of any concentration (40, 80 and 120 mmol/L HBA.Na), four times a day for 5 days, dry environment
Description: Air was blown against rats in a low humidity environment as described below to prepare rat dry eye models. An effect of sodium D-3-hydroxybutyrate (hereinafter abbreviated as “HBA.Na”) which is an active ingredient in the present invention, i.e., its effect of improving the stability of tear film, was examined by use of the prepared rat dry eye models. That is, observation of dry spot areas in the tear film of the rats and measurement of BUT of the tear film were made.
As the animals to be examined, there were used female SD rats of 8 weeks old that had been conditioned in an animal room where they were kept under light for 12 hours and in the dark for 12 hours at a room temperature of 23±2° C. and a relative humidity of 60±10%. The rats were kept in the animal room for 4 days. […]
After passage of two hours from the last application of the eye drops on the fifth day, a xylazine hydrochloride/ketamine hydrochloride mixed solution was injected (2 ml/kg) into the rats to anesthetize them. After 1% fluorescein was added to the eyes of the rats and the rats were forced to blink a few times, BUT was measured. The above procedure was conducted for HBA.Na concentrations of 40, 80 and 120 mmol/L, and each of the HBA.Na concentrations was evaluated based on 8 eyes of 8 rats.

C[C@@H](O)CC(=O)[O-].[Na+] [HBA.Na, sodium D-3-hydroxybutyrate]
state of the microvilli/microvillus of the corneal epithelial cells ([1]; SEM): retained in a normal state and/or restored to the normal state
proportion of dark cells in corneal epithelial cells, compared with PBS ([1]; SEM image analysis): significantly lower proportion of dark cells
dry spot area per unit area of the cornea, compared with PBS (rat dry eye models [2]; eye drop containing 80 mmol/l HBA.Na, p<0.05 vs PBS): significantly smaller dry spot area
dry spot area per unit area of the cornea, compared with PBS (rat dry eye models [2]; eye drop containing 120 mmol/l HBA.Na, tendency only): the dry spot area also became smaller
tear film breakup time (BUT), compared with PBS (rat dry eye models [3]): BUT extended more significantly
